In patent US20030073729A1, “Medicaments for diabetic complication and neuropathy, and uses thereof” (AJINOMOTO CO. INC, priority 2000, published 2003):

Assays:
[1] = tested on: GK rat; test: Motor nerve conduction velocity (tail nerve) in GK rats; assay type: in vivo; settings: 23 weeks after start of oral administration twice a day, glibenclamide 1 mg/kg, nateglinide 50 mg/kg, control group 48.2±1.3, normal control 55.2±1.8
Experimental: An animal test was conducted on a set of the following four groups, and nateglinide and glibenclamide were each suspended into 0.5% methyl cellulose (MC) to give a solution for administration.
GKrats( :male) as a spontaneous diabetic model and normal Wistar rats ( : male) were introduced at the age of 6 weeks.
From the age of 7 weeks, they were kept under a light control (dark term: 7:00 a.m. to 7:00 p.m.; light term: 7:00 p.m. to next morning 7:00) in a feeding limit condition, in which a feed was given twice a day, each only for 1 hour at an interval of 6 hours (9:00 a.m. to 10:00 a.m., and 3:00 p.m. to 4:00 p.m.).
Everyday from the age of 14 weeks, 0.5% MC, glibenclamide (1 mg/kg) or nateglinide (50 mg/kg) was forcibly administered orally just before each feeding twice a day (at 9:00 a.m. and 3:00 p.m.) at an interval of 6 hours.
Twenty-three weeks after the start of the drug administration (the age of 37 weeks), in order to examine an influence on diabetic complications, the motor nerve conduction velocity was measured according to the method described in Cameronetal., Diabetologia, Vol.39, p.1047-1054 (1996), using a tail nerve.

[2] = tested on: GK rat; test: Total cholesterol concentration in blood plasma of GK rats; assay type: in vivo; settings: fasted 17 hours, 4, 14 and 23 weeks after start of administration, glibenclamide 1 mg/kg, nateglinide 50 mg/kg twice a day, FIG. 2
Experimental: In the same manners as those in the Example 1, the groups formation for the test animals, the feeding of the animals and the administration of medicinal compounds (drug) to be tested to the animals were performed. At one week before the start of the drug administration (the age of 13 weeks) for the animals, and at four weeks (the age of 18 weeks), fourteen weeks (the age of 28 weeks) and twenty-three weeks (the age of 37 weeks) each after the start of the drug administration, the blood samples were taken from the jugglar vein after fasting (abstinence from food) for 17 hours. The total cholesterol concentration in the blood plasma was measured by means of the cholesterol oxidase test method using the Fuji […] analyzer.

[3] = tested on: Na^+/K^+-ATPase activity in the sciatic nerve; test: Na+/K+-ATPase activity in sciatic nerve of GK rats; assay type: in vivo; settings: GK rat, 23 weeks after start of oral administration, nateglinide 50 mg/kg twice a day; control group 87.6±9.8, normal control 110.5±7.7
Experimental: In the same manners as those in the Example 1, the group formation for the test animals, the feeding of the animals and the administration of medicinal compounds (drug) to be tested to the animals were performed. At twenty-three weeks after the start of the drug administration (the age of 37 weeks), the rats were killed and the sciatic nerves were excised. A Na^+/K^+-ATPase activity in the sciatic nerve was measured based on the method described in Green et al., Journal of Clinical Investigation, vol.72, 1058-1063 (1983).

[4] = tested on: GK rats; test: Triglyceride concentration in blood plasma after fat emulsion loading, GK rats; assay type: in vivo, rat; settings: fat emulsion (Intralipos, 2 g/kg) load, crossover, nateglinide 50 mg/kg or voglibose 0.2 mg/kg orally just before loading
Experimental: (§1) Using the postprandial hyper lipemiamodel rats (10rats) thus obtained, in a crossover method, an influence of the drug administered on a triglyceride concentration in blood plasma (a postprandial hyperlipemia- suppressing effect) was examined. That is, nateglinide (50 mg/kg) or voglibose (0.2 mg/kg), an alpha-glucosidase inhibitor as a control was administered orally, just before loading with the fat emulsion, and the blood samples were taken from a tail vein with time by four hours after the administration.
(§2) A triglyceride concentration in the blood plasma was measured by means of the Fuji Drichem analyzer.

[5] = tested on: Zucker Fatty rat; test: Triglyceride concentration in blood plasma after fat emulsion loading, Zucker Fatty rat; assay type: in vivo; settings: for area under the curve (AUC) of the triglyceride until four hours after the load: Zucker Fatty rat, fat emulsion load, nateglinide 50 mg/kg or voglibose 0.2 mg/kg orally
Experimental: as §1, §2
The same examinations were also conducted with the use of a Zucker Fatty rat which is another hyperlipidemic animal.
As a result of fractional analysis of lipoprotein by means of anagarose gel electrophoresis, amarked increase of fractions in the origin area and pre β subfractions, which are thought to contain chylomicron, VLDL (very low density lipoprotein) and so on which are said to correlate with an angiopathy and an arteriosclerosis was observed.

[6] = tested on: vWF concentration in the serum; test: vWF concentration in serum of GK rats (ELISA); assay type: in vivo; settings: GK rat, 23 weeks after start of administration, nateglinide 50 mg/kg twice a day; relative to normal control group 100; control group 184.8±24.3
Experimental: In the same manners as those in the Example 1, the feeding of the animals for the test animals and the administration of medicinal compounds (drug) to be tested to the animals were performed. At twenty-three (23) weeks after the start of the drug administration (the age of 37 weeks), the blood samples were taken from the postcaval vein. The vWF concentration in the serum was measured by means of the ELISA method using anti-human vWF antibody (made by DAKO Co.).

SMILES | motor nerve conduction velocity [1] | total cholesterol concentration in the blood plasma [2] | Na^+/K^+-ATPase activity in the sciatic nerve [3] | increase of area under the curve (AUC) of the triglyceride during four hours after the loading [4] | area under the curve (AUC) of the triglyceride until four hours after the load [5] | increase of lipoprotein fractions in the origin area and pre β subfractions (agarose gel electrophoresis) ([5]; after fat emulsion load, fractions thought to contain chylomicron, VLDL) | vWF concentration in the serum [6]
COc1ccc(Cl)cc1C(=O)NCCc1ccc(S(=O)(=O)NC(=O)NC2CCCCC2)cc1 [glibenclamide] | 52.3±0.9 m/sec | change in the cholesterol value was not observed | – | – | – | – | –
CC(C)[C@H]1CC[C@H](C(=O)N[C@H](Cc2ccccc2)C(=O)O)CC1 [nateglinide, (−)-N-(trans-4-isopropylcyclohexane-carbonyl)-D-phenylalanine] | 55.9±1.3 m/sec | marked decrease | 99.5±7.6 μmol ADP/g/hr | 81 ± 22 mg·h/dL | 15 ± 69 mg·h/dL | suppressed | 124.5±21.5%
OCC(CO)N[C@H]1C[C@](O)(CO)[C@@H](O)[C@H](O)[C@H]1O [voglibose] | – | – | – | 164 ± 17 mg·h/dL | 501 ± 112 mg·h/dL | – | –
